Measurements published in patent publication US20240245677A1, “SELECTED COMPOUNDS FOR TARGETED DEGRADATION OF BRD9” (C4 THERAPEUTICS, INC., priority 2021, published 2024).
Values joined by “and” are separate entries in the source; they are usually repeats but may differ in a detail not shown here. Equal values may be shown once. Read-outs that look alike come from different tables or passages of the source.

Assay: Pharmacokinetic study in male Sprague Dawley rats
Assay type: in vivo, rat
Settings: for concentration at 0.033 h / concentration at 0.33 h / concentration at 1 h / concentration at 2 h / concentration at 4 h / concentration at 8 h / concentration at 24 h: male, Sprague Dawley
Experimental: The pharmacokinetic (PK) profile in plasma of Compound 1 was determined in male Sprague Dawley rats following single dose intravenous (IV) (2 mg/kg) and per os (PO) (10 mg/kg) administration. This study was performed under non-GLP conditions, and unless otherwise stated, all analytical reagents were at least standard laboratory reagent grade, and deionized water was prepared at the study site.
The characteristics of Compound 1 used in this study were as follows: molecular weight of base, 710.78; molecular weight of Compound 1 with salt, 824.81; purity on as is basis, 99.28%.
All animals were housed in cages with clean bedding and maintained and monitored for good health and at the discretion of the laboratory animal veterinarian. Certified rodent diet was provided, and water was available ad libitum. Environmental controls for the animal room were set to maintain a temperature of 22 to 25° C., humidity of 40-70% relative humidity, and a 12-hour light/12-hour dark cycle.
Normal healthy animals certified by the attending veterinarian were selected and acclimatized for a minimum of three days prior to initiation of the study. Animals were identified by body markings.
The rats were anaesthetized with a single dose of ketamine 50 mg/kg i.p. plus xylazine 6 mg/kg i.p. The right jugular was exposed, and a loose ligature was placed caudally, and the cranial end of the vein was ligated. A small incision was made between the ligatures into which a catheter (polyethylene 50 tubing with an internal diameter of 0.58 mm and outer diameter of 0.96 mm) was inserted. The catheter was secured in place by tying the loose ligature around the catheterized vessel. A small incision was made in the scapular region to serve as the exit site of the catheter. The catheter was subcutaneously tunneled and exteriorized through the scapular incision. A stay suture was placed in the scapular area. Patency was tested, and the catheter was filled with a locking solution (heparinized saline) and sealed with a stainless-steel plug. The incision was then sutured with sterile suturing material. Anti-septic solution was applied to the sutured site and the animal was placed back in its home cage. The animals were closely observed throughout the recovery period of 24 hours. The rats were freely moving in the cage (one rat per cage).
Test animals were weighed prior to drug administration, and the standard weight of the animals used was 190 grams. The animals were divided into two groups, IV group and PO group, with each group containing 3 test animals each and 2 spare animals. The IV dose was administered by intravenous injection into the tail vein and PO dose was administered via oral gavage needle. The dosing volume was 5 mL/kg body weight for both groups. The dosing concentration was 0.4 mg/mL for the IV group and 2 mg/mL for the PO group. The animals were in fasted state during the study.
For both dosing groups, blood was collected from the jugular vein (serial sampling) for plasma isolation at 0.033, 0.33, 1, 2, 4, 6, 8, and 24 hour timepoints. The anti-coagulant solution used was 6% (v/v) sodium citrate (200 mM, pH 4.79).
For sample collection, the animals were held to remove the first two drops of blood from the cannula to ensure removal of any excess heparinized saline before collection of blood. The external catheter was connected to a syringe and 0.20-0.30 mL of blood was collected in the syringe and transferred to a pre-labeled, pre-chilled tube. Blood volume was replaced by administering to the animal an equal volume of saline through the jugular vein. After blood collection from each animal, the sample from that animal was recorded in the sample collection sheet.
After collection of each blood sample, the blood sample was stored on ice prior to centrifugation. Blood samples were centrifuged within 20 minutes of collection to separate plasma. Centrifugation was conducted at 2500×g for 15 minutes at 4° C. […]

[1] = rat, plasma, 2 mg/kg IV, Male Sprague Dawley Rats, mean
[2] = rat, plasma, 10 mg/kg PO, Male Sprague Dawley Rats, mean

COc1cc(-c2cn(C)c(=O)c(C)c2C)cc(OC)c1CN1CC[C@H](N2CCN(c3ccc(N[C@H]4CCC(=O)NC4=O)cc3F)CC2)C(F)(F)C1 [Compound 1, (S)-3-((4-(4-((S)-1-(2,6-dimethoxy-4-(1,4,5-trimethyl-6-oxo-1,6-dihydropyridin-3-yl)benzyl)-3,3-difluoropiperidin-4-yl)piperazin-1-yl)-3-fluorophenyl)amino)-piperidine-2,6-dione]
Plasma Concentration, individual rats (2 mg/kg IV, 0.033 h): 827.34 ng/mL and 751.46 ng/mL | Plasma Concentration, individual rats (2 mg/kg IV, 0.33 h): 387.61 ng/mL and 411.63 ng/mL | Plasma Concentration, individual rats (2 mg/kg IV, 1 h): 253.11 ng/mL and 196.32 ng/mL | Plasma Concentration, individual rats (2 mg/kg IV, 2 h): 175.63 ng/mL and 182.50 ng/mL | Plasma Concentration, individual rats (2 mg/kg IV, 4 h): 82.15 ng/mL and 113.01 ng/mL | Plasma Concentration, individual rats (2 mg/kg IV, 8 h): 66.27 ng/mL and 68.01 ng/mL | Plasma Concentration, individual rats (2 mg/kg IV, 24 h): 2.51 ng/mL and 4.24 ng/mL | CI (2 mg/kg IV, Male Sprague Dawley Rats, mean): 21.64 mL/min/kg | concentration at 0.033 h (rat, plasma, intravenous, 2 mg/kg, 2 mg/kg IV, 0.033 h, read-out: Plasma Concentration, Average): 811 ng/mL | concentration at 0.033 h (rat, plasma, intravenous, 2 mg/kg, 2 mg/kg IV, 0.033 h, read-out: Plasma Concentration, individual rats): 854 ng/mL | concentration at 0.33 h (rat, plasma, intravenous, 2 mg/kg, 2 mg/kg IV, 0.33 h, read-out: Plasma Concentration, Average): 395 ng/mL | concentration at 0.33 h (rat, plasma, intravenous, 2 mg/kg, 2 mg/kg IV, 0.33 h, read-out: Plasma Concentration, individual rats): 385 ng/mL | concentration at 1 h (rat, plasma, intravenous, 2 mg/kg, 2 mg/kg IV, 1 h, read-out: Plasma Concentration, Average): 202 ng/mL | concentration at 1 h (rat, plasma, intravenous, 2 mg/kg, 2 mg/kg IV, 1 h, read-out: Plasma Concentration, individual rats): 158 ng/mL | concentration at 2 h (rat, plasma, intravenous, 2 mg/kg, 2 mg/kg IV, 2 h, read-out: Plasma Concentration, Average): 181 ng/mL | concentration at 2 h (rat, plasma, intravenous, 2 mg/kg, 2 mg/kg IV, 2 h, read-out: Plasma Concentration, individual rats): 186 ng/mL | concentration at 4 h (rat, plasma, intravenous, 2 mg/kg, 2 mg/kg IV, 4 h, read-out: Plasma Concentration, Average): 107 ng/mL | concentration at 4 h (rat, plasma, intravenous, 2 mg/kg, 2 mg/kg IV, 4 h, read-out: Plasma Concentration, individual rats): 125 ng/mL | concentration at 8 h (rat, plasma, intravenous, 2 mg/kg, 2 mg/kg IV, 8 h, read-out: Plasma Concentration, Average): 61.9 ng/mL | concentration at 8 h (rat, plasma, intravenous, 2 mg/kg, 2 mg/kg IV, 8 h, read-out: Plasma Concentration, individual rats): 51.4 ng/mL | concentration at 24 h (rat, plasma, intravenous, 2 mg/kg, 2 mg/kg IV, 24 h, read-out: Plasma Concentration, Average): 3.76 ng/mL | concentration at 24 h (rat, plasma, intravenous, 2 mg/kg, 2 mg/kg IV, 24 h, read-out: Plasma Concentration, individual rats): 4.54 ng/mL | concentration at 0.033 h (rat, plasma, oral, 10 mg/kg, 10 mg/kg PO, Male Sprague Dawley Rats, 0.033 h, Rat-1, read-out: Plasma Concentration (ng/mL) Rat-1): 2.98 ng/mL | concentration at 0.033 h (rat, plasma, oral, 10 mg/kg, 10 mg/kg PO, Male Sprague Dawley Rats, 0.033 h, Rat-2, read-out: Plasma Concentration (ng/mL) Rat-2): 16.4 ng/mL | concentration at 0.033 h (rat, plasma, oral, 10 mg/kg, 10 mg/kg PO, Male Sprague Dawley Rats, 0.033 h, Rat-3, read-out: Plasma Concentration (ng/mL) Rat-3): 1.81 ng/mL | concentration at 0.033 h (rat, plasma, oral, 10 mg/kg, 10 mg/kg PO, Male Sprague Dawley Rats, 0.033 h, average, read-out: Plasma Concentration Average): 7.06 ng/mL | concentration at 0.33 h (rat, plasma, oral, 10 mg/kg, 10 mg/kg PO, Male Sprague Dawley Rats, 0.33 h, Rat-1, read-out: Plasma Concentration (ng/mL) Rat-1): 215 ng/mL | concentration at 0.33 h (rat, plasma, oral, 10 mg/kg, 10 mg/kg PO, Male Sprague Dawley Rats, 0.33 h, Rat-2, read-out: Plasma Concentration (ng/mL) Rat-2): 177 ng/mL | concentration at 0.33 h (rat, plasma, oral, 10 mg/kg, 10 mg/kg PO, Male Sprague Dawley Rats, 0.33 h, Rat-3, read-out: Plasma Concentration (ng/mL) Rat-3): 350 ng/mL | concentration at 0.33 h (rat, plasma, oral, 10 mg/kg, 10 mg/kg PO, Male Sprague Dawley Rats, 0.33 h, average, read-out: Plasma Concentration Average): 247 ng/mL | concentration at 1 h (rat, plasma, oral, 10 mg/kg, 10 mg/kg PO, Male Sprague Dawley Rats, 1 h, Rat-1, read-out: Plasma Concentration (ng/mL) Rat-1): 648 ng/mL | concentration at 1 h (rat, plasma, oral, 10 mg/kg, 10 mg/kg PO, Male Sprague Dawley Rats, 1 h, Rat-2, read-out: Plasma Concentration (ng/mL) Rat-2): 416 ng/mL | concentration at 1 h (rat, plasma, oral, 10 mg/kg, 10 mg/kg PO, Male Sprague Dawley Rats, 1 h, Rat-3, read-out: Plasma Concentration (ng/mL) Rat-3): 729 ng/mL | concentration at 1 h (rat, plasma, oral, 10 mg/kg, 10 mg/kg PO, Male Sprague Dawley Rats, 1 h, average, read-out: Plasma Concentration Average): 598 ng/mL | concentration at 2 h (rat, plasma, oral, 10 mg/kg, 10 mg/kg PO, Male Sprague Dawley Rats, 2 h, Rat-1, read-out: Plasma Concentration (ng/mL) Rat-1): 560 ng/mL | concentration at 2 h (rat, plasma, oral, 10 mg/kg, 10 mg/kg PO, Male Sprague Dawley Rats, 2 h, Rat-2, read-out: Plasma Concentration (ng/mL) Rat-2): 864 ng/mL | concentration at 2 h (rat, plasma, oral, 10 mg/kg, 10 mg/kg PO, Male Sprague Dawley Rats, 2 h, Rat-3, read-out: Plasma Concentration (ng/mL) Rat-3): 594 ng/mL | concentration at 2 h (rat, plasma, oral, 10 mg/kg, 10 mg/kg PO, Male Sprague Dawley Rats, 2 h, average, read-out: Plasma Concentration Average): 673 ng/mL | concentration at 4 h (rat, plasma, oral, 10 mg/kg, 10 mg/kg PO, Male Sprague Dawley Rats, 4 h, Rat-1, *Outlier: Aberrant value, read-out: Plasma Concentration (ng/mL) Rat-1): 227 ng/mL | concentration at 4 h (rat, plasma, oral, 10 mg/kg, 10 mg/kg PO, Male Sprague Dawley Rats, 4 h, Rat-2, read-out: Plasma Concentration (ng/mL) Rat-2): 593 ng/mL | concentration at 4 h (rat, plasma, oral, 10 mg/kg, 10 mg/kg PO, Male Sprague Dawley Rats, 4 h, Rat-3, read-out: Plasma Concentration (ng/mL) Rat-3): 420 ng/mL | concentration at 4 h (rat, plasma, oral, 10 mg/kg, 10 mg/kg PO, Male Sprague Dawley Rats, 4 h, average, read-out: Plasma Concentration Average): 506 ng/mL | concentration at 8 h (rat, plasma, oral, 10 mg/kg, 10 mg/kg PO, Male Sprague Dawley Rats, 8 h, Rat-1, read-out: Plasma Concentration (ng/mL) Rat-1): 304 ng/mL | concentration at 8 h (rat, plasma, oral, 10 mg/kg, 10 mg/kg PO, Male Sprague Dawley Rats, 8 h, Rat-2, read-out: Plasma Concentration (ng/mL) Rat-2): 527 ng/mL | concentration at 8 h (rat, plasma, oral, 10 mg/kg, 10 mg/kg PO, Male Sprague Dawley Rats, 8 h, Rat-3, read-out: Plasma Concentration (ng/mL) Rat-3): 370 ng/mL | concentration at 8 h (rat, plasma, oral, 10 mg/kg, 10 mg/kg PO, Male Sprague Dawley Rats, 8 h, average, read-out: Plasma Concentration Average): 400 ng/mL | concentration at 24 h (rat, plasma, oral, 10 mg/kg, 10 mg/kg PO, Male Sprague Dawley Rats, 24 h, Rat-1, read-out: Plasma Concentration (ng/mL) Rat-1): 21.5 ng/mL | concentration at 24 h (rat, plasma, oral, 10 mg/kg, 10 mg/kg PO, Male Sprague Dawley Rats, 24 h, Rat-2, read-out: Plasma Concentration (ng/mL) Rat-2): 49.3 ng/mL | concentration at 24 h (rat, plasma, oral, 10 mg/kg, 10 mg/kg PO, Male Sprague Dawley Rats, 24 h, Rat-3, read-out: Plasma Concentration (ng/mL) Rat-3): 36.8 ng/mL | concentration at 24 h (rat, plasma, oral, 10 mg/kg, 10 mg/kg PO, Male Sprague Dawley Rats, 24 h, average, read-out: Plasma Concentration Average): 35.8 ng/mL | AUC(0-inf) [1]: 1540 ng·h/mL | AUC(0-t) [1]: 1520 ng·h/mL | C0 [1]: 879 ng/mL | MRT last [1]: 4.82 h | half-life [1]: 3.97 h | Vd (rat, plasma, 2 mg/kg IV, Male Sprague Dawley Rats, mean, read-out: Vdss): 6.7 L/kg | AUC(0-inf) [2]: 6560 ng·h/mL | AUC(0-t) [2]: 6290 ng·h/mL | Cmax [2]: 747 ng/mL | MRT last [2]: 7.34 h | Tmax [2]: 1.33 h | bioavailability [2]: 82.8% | half-life [2]: 5.12 h
